13 compounds from US9284350B2, “IAP BIR domain binding compounds” (Pharmascience Inc., priority 2010, dated 2016) can be followed below.

The structures appear in SMILES notation. pEC50, pKi: −log10 of the molar value.

As usually defined, the pKi is the negative decadic logarithm of the Ki, by convention in mol/L. Higher therefore signals a small Ki. Broadly, the pEC50 is −log10 of the EC50, conventionally taken in molar units.

One assay concerns the target T1, XIAP (Homo sapiens, UniProt P98170).
T1 construct: fused on or other part: GST tag at the N-terminus (pGEX4T vectors)
The experiment in a line: Fluorescence polarization-based competition assay, XIAP. The assay is classed as binding. As to conditions: FP assay, ki derived from IC50. As for the experimental part:
(§1) Binding of compounds of Formula 1 to target BIR domains was measured using a fluorescence-polarization (FP) assay. Fluorescence-polarization was evaluated using a GENios microplate reader (TECAN) Pro instrument with the excitation filter set at 485 nm and the emission filter set at 535 nm. The final amount of protein used in the assay corresponds to the amount of protein necessary to obtain 80% of the maximum FP value in a P1 or P2 fluorescent (FITC) probe saturation experiment. The compounds potency (IC50) and selectivity, was assessed in the presence of the amount of target protein established, fluorescent probe, and a 10 point serial dilution in assay buffer (50 mM Hepes, pH 7.5, 250 mcg/mL γ-globulin, 2 mM DTT, 1% DMSO) of the selected compounds.
(§2) Assays were carried out in duplicate using untreated black 96-well plates (Corning #3915) and a total volume of 100 microliters, containing 25 microliters of fluorescent probe at a final concentration of 2 nM in assay buffer, 25 microliters of diluted compound, 25 microliters of BIR protein into assay buffer and 25 microliters of assay buffer. Buffer only (blank) or probe only in buffer (G-factor) were used as controls for calibration. The plate was incubated at room temperature in the dark for one hour and FP values in millipolarization units (mP) were recorded using Genios Pro FP reader.
(§3) The measured FP values (mP) were then plotted against compound concentration, and IC50 values were calculated based on a sigmoidal dose-response (variable-slope) curve fit using GraphPad Prism version 4.02 for Windows, GraphPad Software, San Diego Calif. USA and/or CambridgeSoft BioAssay Enterprise Version 10.1. The IC50 value is the concentration of test compound at which 50% of the tracer was displaced. ki values were derived from the calculated IC50 values as described above and according to the equation described in Nikolovska-Coleska, Z. (2004) Anal Biochem 332, 261-273. The results are presented in Table 2, wherein A=less than 25 nM; B=less than 250 nM; C=less than 1000 nM; and D=greater than 1000 nM.
In general terms: In fluorescence polarisation assays a small probe gives low polarisation when free and higher when bound to something large.

The target of a further assay is T2, c-IAP1 (Homo sapiens, UniProt Q13490).
T2 construct: GST (N); made in house; host or cells: E. coli DH5α
T2 sequence (Q13490 251-363): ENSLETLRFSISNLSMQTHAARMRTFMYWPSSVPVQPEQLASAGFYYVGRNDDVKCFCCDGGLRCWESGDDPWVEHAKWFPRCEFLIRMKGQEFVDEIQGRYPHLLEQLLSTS
The experiment in a line: Fluorescence polarization-based competition assay, c-IAP1. The assay is classed as binding. As to conditions: FP assay, ki derived from IC50. As for the experimental part:
as §1, §2, §3

The target of the next assay is T3, cIAP2 (Homo sapiens, UniProt Q13489).
T3 construct: GST (N); made in house; host or cells: E. coli DH5α
T3 sequence (Q13489 236-349): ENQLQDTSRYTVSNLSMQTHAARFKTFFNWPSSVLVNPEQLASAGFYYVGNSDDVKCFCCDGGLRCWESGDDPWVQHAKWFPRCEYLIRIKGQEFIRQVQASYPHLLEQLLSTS
The experiment in a line: Fluorescence polarization-based competition assay, cIAP2. The assay is classed as binding. The following applies: FP assay, ki derived from IC50. On the procedure: as §1, §2, §3

Assay [1] concerns Colorectal carcinoma HCT116 cells. Briefly: Cell death assay (MTT) in combination with HGS ETR1. The assay is classed as cell-based. As to conditions: with HGS ETR1 30 ng/ml, 72 hours, read-out: HCT116+ mapatubimap EC50. As for the experimental part: Colorectal carcinoma HCT116 cells were cultured as monolayers in 96 well plates at a density of 2000 cells per well in McCoy's 5a medium (HyClone) supplemented with 2.2 g/L sodium bicarbonate, 10% FBS (HyClone) and 1% penicillin/streptomycin (HyClone). 24 hours later, triplicate wells were treated with HGS ETR1 (30 ng/ml) in combination with compound. Cells were incubated in the presence of compound and HGS agonistic Trail receptor antibody, ETR1 (Mapatumamab, 30 ng/ml) for 72 hours. Metabolic viability of remaining cells was assessed by MTT (thiazolyl blue tetrazolium bromide, Sigma) assay.
EC50 values (50% cell survival in the presence of compound as compared to untreated controls) were calculated from survival curves using BioAssay software (CambridgeSoft) and GraphPad Prism (Graph Pad Software Inc.). The results are provided in Table 3, below, wherein A=less than 50 nM; B=less than 250 nM; C=less than 1000 nM; and D=greater than 1000 nM.

T1 sequence (P98170 246-497 limits assumed): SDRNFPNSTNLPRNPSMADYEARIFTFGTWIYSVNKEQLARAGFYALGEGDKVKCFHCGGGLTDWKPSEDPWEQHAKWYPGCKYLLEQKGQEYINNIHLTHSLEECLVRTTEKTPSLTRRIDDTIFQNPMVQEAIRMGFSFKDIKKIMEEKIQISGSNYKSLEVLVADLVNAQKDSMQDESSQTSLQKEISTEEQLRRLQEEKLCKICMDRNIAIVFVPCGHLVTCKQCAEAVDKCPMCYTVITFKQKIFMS

Take `CN[C@@H](C)C(=O)N[C@H](C(=O)N1C[C@@H](Oc2ccc(OC(F)(F)F)cc2)C[C@H]1CN(CCc1ccc(F)cc1)C(=O)c1cn2ccccc2n1)C(C)(C)C` [Compound 111]: the pKi on XIAP, at c-IAP1 and at cIAP2 was greater than 7.60 throughout. For the same compound, in assay [1], the pEC50 was greater than 7.30.
Take `CN[C@@H](C)C(=O)N[C@H](C(=O)N1CCC[C@H]1CN(CCc1ccc(F)cc1)C(=O)c1cn(-c2ccccc2)nn1)[C@@H](C)OC` [Compound 77]: the values for the pKi on XIAP, on c-IAP1 and on cIAP2 were greater than 6.60, greater than 7.60 and greater than 7.60, respectively. Besides, the pEC50 in assay [1] was greater than 7.30.
As to `CN[C@@H](C)C(=O)N[C@H](C(=O)N1CCC[C@H]1CN(CCc1ccc(F)cc1)C(=O)c1cn(C2CCCCC2)cn1)C(C)(C)C` [Compound 93], the results for the pKi on XIAP, on c-IAP1 and on cIAP2 were greater than 6.60, greater than 7.60 and greater than 7.60, respectively. Besides, the pEC50 in assay [1] was greater than 7.30.
`CN[C@@H](C)C(=O)N[C@H](C(=O)N1C[C@@H](Oc2ccccc2)C[C@H]1CN(CCc1ccc(F)cc1)C(=O)c1cn2cccnc2n1)C(C)(C)C` [Compound 124]: the results for the pKi on XIAP, at c-IAP1 and on cIAP2 were greater than 6.60, greater than 7.60 and greater than 7.60, respectively. In addition, in assay [1], the pEC50 is greater than 7.30.
With `CN[C@@H](C)C(=O)N[C@H](C(=O)N1CCC[C@H]1CN(CCc1ccc(F)cc1)C(=O)c1cn2ccccc2n1)[C@@H](C)OC` [Compound 58], the pKi at XIAP was greater than 6.60; at c-IAP1, greater than 7.60; at cIAP2 it was greater than 7.60. Moreover, the pEC50 in assay [1] was greater than 7.30.
For `CN[C@@H](C)C(=O)N[C@H](C(=O)N1CCC[C@H]1CN(CCc1ccccc1)C(=O)c1cn2cc(F)ccc2n1)C(C)(C)C` [Compound 32], the negative logarithm of the Ki (pKi) on XIAP was greater than 6.60; on c-IAP1 it was greater than 7.60; at cIAP2, greater than 7.60. Besides, the negative-log EC50 (pEC50) in assay [1] was greater than 6.60.
With `CN[C@@H](C)C(=O)N[C@H](C(=O)N1CCC[C@H]1CN(CCc1ccc(F)cc1)C(=O)c1ncc(-c2ccccc2)o1)C(C)(C)C` [Compound 123], the values for the pKi on XIAP, on c-IAP1 and at cIAP2 were greater than 6.60, greater than 7.60 and greater than 7.60, respectively. The negative logarithm of the EC50 (pEC50) in assay [1] is greater than 7.30.
For the compound `CN[C@@H](C)C(=O)N[C@H](C(=O)N1CCC[C@H]1CN(CCc1ccc(F)cc1)C(=O)c1ccn(-c2ccccc2)c1)C(C)(C)C` [Compound 122], the figures for the pKi at XIAP, on c-IAP1 and at cIAP2 were greater than 6.60, greater than 7.60 and greater than 7.60, respectively. Moreover, the pEC50 in assay [1] was greater than 6.60.
`CN[C@@H](C)C(=O)N[C@H](C(=O)N1CCC[C@H]1CN(CCc1ccc(F)cc1)C(=O)c1cn2c(n1)CCC2)[C@@H](C)OC` [Compound 75]: the pKi is greater than 6.60 at XIAP, greater than 7.60 at c-IAP1 and greater than 7.60 at cIAP2. Also, the negative-log EC50 (pEC50) in assay [1] is greater than 7.30.
For the compound `CN[C@@H](C)C(=O)N[C@H](C(=O)N1C[C@@H](OCc2ccccc2)C[C@H]1CN(CCc1ccc(F)cc1)C(=O)c1cn2cccnc2n1)C(C)(C)C` [Compound 47], the pKi on XIAP was greater than 6.60; at c-IAP1, greater than 7.60; on cIAP2, greater than 7.60. Moreover, in assay [1], the pEC50 was greater than 6.60.
Consider `CN[C@@H](C)C(=O)N[C@H](C(=O)N1C[C@@H](NC(=O)OCc2ccccc2)C[C@H]1CN(CCc1ccc(F)cc1)C(=O)c1cn2cccnc2n1)C(C)(C)C` [Compound 44], for which the negative logarithm of the Ki (pKi) at XIAP is greater than 6.60; at c-IAP1, greater than 7.60; on cIAP2 it was greater than 7.60. Besides, the pEC50 in assay [1] was greater than 6.60.
Regarding `CCO[C@H](C)[C@H](NC(=O)[C@H](C)NC)C(=O)N1CCC[C@H]1CN(CCc1ccc(F)cc1)C(=O)c1cn2cc(F)cnc2n1` [Compound 80], the pKi was greater than 6.60 on XIAP, greater than 7.60 at c-IAP1 and greater than 7.60 on cIAP2. Further, the pEC50 in assay [1] is greater than 7.30.
On to `CN[C@@H](C)C(=O)N[C@H](C(=O)N1C[C@@H](NC(C)=O)C[C@H]1CN(CCc1ccc(F)cc1)C(=O)c1cn2ccccc2n1)C(C)(C)C` [Compound 70], for which the results for the pKi on XIAP, on c-IAP1 and on cIAP2 were greater than 6.00, greater than 7.60 and greater than 6.60, respectively. Moreover, the pEC50 in assay [1] was greater than 6.00.
